# Results from patent US20250176550A1, “HERBICIDE COMPOSITION OF URACIL COMPOUND CONTAINING CARBOXYLATE FRAGMENT AND THE USE THEREOF” (Jiangsu Flag Chemical Industry Co., Ltd., priority 2022, published 2025).
# Read-outs that look alike come from different tables or passages of the source.
# Experiments:
# Format in all cases: in vivo
# eclipta prostrata = assay: Indoor virulence and combined effect, greenhouse pot test, pre-emergence soil spray treatment, fresh weight inhibition
# Description: (§1) The active ingredients A and B are respectively screened and an indoor combined effect of the composition on weeds was evaluated by an indoor test and a field test, to determine a combined effect of the composition on weeds.
# (§2) Quantitative seeds of Poaceae weeds (echinochloa crusgalli, Digitaria sanguinalis, setaria viridis, Eleusine indica, avena fatua, alopecurus japonicus, alopecurus aequalis, Lolium multiflorum) and broadleaf weeds (eclipta prostrata, rorippa dubia, Abutilon theophrasti, conyza canadensis, veronica persica, myosoton aquaticum, polygonum lapathifolium, galium aparine var. tenerum, alisma plantago-aquatica, geranium carolinianum) were sown in paper cup containing nutrient soil with a diameter of 7 cm, covered with soil for 1 cm after sowing. After pressing and watering, they were cultured in a greenhouse according to a conventional method. Poaceae weeds grew to 3˜4 leaf stage, broad-leaved weeds grew to 4˜6 leaf stage, spraying treatment to both stem and leaf was performed; and pre-seedling soil spray treatment was performed 24 hours after sowing. Following an experimental design dosage, a WP-2000 walking spray tower (spindle speed 96 mm/r, spray height 200 mm, effective spray amplitude of nozzle 350 mm, nozzle flow rate 390 mL/min, nozzle walking speed 210 mm/s) was used for the spray treatment. The experiment was repeated three times. After being treated, a sample material is placed in an operation hall, and after the drug solution is naturally dried out, the sample material is placed in a greenhouse and managed according to the conventional method. A reaction of weeds to the drug agent is observed and recorded, and a regularly visual check of a control effect of the drug agent on weeds was performed after the treatment.
# (§3) All of original drugs were using acetone as a solvent, being diluted with 0.1 wt % emulsifier of Tween-80 aqueous solution, and being diluted right before using.
# (§4) When determining a ratio or content of the active ingredient A and the active ingredient B, it should be measured from characteristics of action of both agents and virulence thereof, as well as the main purpose of use of a formula shall also be considered in. In the present study, on a basis of previous pre-test, the dosages of the active ingredient A and the active ingredient B were set, when being used alone and mixed, as shown in the following table. Water containing no agent, but containing the same solvent and emulsifier was used as a blank control.
# (§5) Repeat 4 times for each treatment, 3 pots per treatment each time and 30 weed seeds were sown for each pot.
# (§6) Adopting an absolute number survey method, using a blade to cut the whole seedling of surviving weed along soil surface, and weighting the fresh weight of the weed with an analytical balance. For weeds that had died, counting the fresh weight as zero.
# (§7) Survey period and frequency: 21 days after the treatment, total 1 investigation.
# (§8) The theoretical fresh weight inhibition rate (E0-Expected Efficacy=[…]) of each treatment combination was calculated by Gowing method, and then compared with the measured inhibition rate (E-Observed Efficacy) to evaluate the combined effect type of both on weeds. When E-E0 value was greater than 10%, it was counted as a synergistic effect, less than −10%, it was counted as an antagonistic effect, and between −10%˜10%, it was counted as an additive effect. According to a plurality of factors including an actual control efficacy, a herbicide characteristic, a formula balance and other factors to determine the best ratio. In the formula, X is the fresh weight inhibition rate of the ingredient A at a dosage of P; Y is the fresh weight inhibition rate of the active ingredient B at a dosage of Q.
# (§9) The statistical results are shown in Table 1 to Table 44 below, except for those marked clearly as “pre-emergence treatment”, all others are “post-emergence treatment”. […]
# digitaria sanguinalis = assay: as above
# Description: as §1, §2, §3, §4, §5, §6, §7, §8, §9
# setaria viridis = assay: Indoor virulence and combined effect, greenhouse pot test, post-emergence stem and leaf spray, fresh weight inhibition; conditions: for inhibition at 750 g/ha: 750 g a.i./ha; for Fresh weight inhibition rate %, B single agent: Table 10
# Description: as §1
# as §2, with “Following an experimental design dosage, a WP-2000 walking spray tower (spindle speed 96 mm/r, spray height 200 mm, effective spray amplitude of nozzle 350 mm, nozzle flow rate 390 mL/min, nozzle walking speed 210 mm/s) was used for the spray treatment.” left out, “method.” for “method. A reaction of weeds to the drug agent is observed and recorded, and a regularly visual check of a control effect of the drug agent on weeds was performed after the treatment.”
# as §3, §4, §5, §6, §7
# When E-E0 value was greater than 10%, it was counted as a synergistic effect, less than −10%, it was counted as an antagonistic effect, and between −10%˜10%, it was counted as an additive effect. […] In the formula, X is the fresh weight inhibition rate of the ingredient A at a dosage of P; Y is the fresh weight inhibition rate of the active ingredient B at a dosage of Q.
# alopecurus japonicus = assay: as above; conditions: for inhibition at 25 g/ha: 25 g a.i./ha; for Fresh weight inhibition rate %, B single agent: Table 25
# Description: as §1, §2, §3, §4, §5, §6, §7, §8, §9
# eleusine indica = assay: Indoor virulence and combined effect, greenhouse pot test, pre-emergence soil spray treatment, fresh weight inhibition
# Description: as §1, §2, §3, §4, §5, §6, §7, §8, §9
smiles,measurement,setting,value
CCc1cccc(C)c1N(C(=O)CCl)[C@@H](C)COC [S-metolachlor],"Fresh weight inhibition rate %, B single agent","eclipta prostrata; Table 28, B 300 g a.i./ha",45.64%
same,"Fresh weight inhibition rate %, B single agent","eclipta prostrata; Table 28, B 450 g a.i./ha",57.41%
same,"Fresh weight inhibition rate %, B single agent","eclipta prostrata; Table 28, B 600 g a.i./ha",61.78%
same,"Fresh weight inhibition rate %, B single agent","eclipta prostrata; Table 28, B 750 g a.i./ha",70.72%
CCOCN(C(=O)CCl)c1c(C)cccc1CC [acetochlor],"Fresh weight inhibition rate %, B single agent","digitaria sanguinalis; Table 40, B 250 g a.i./ha",55.88%
same,"Fresh weight inhibition rate %, B single agent","digitaria sanguinalis; Table 40, B 375 g a.i./ha",67.45%
CCNc1nc(Cl)nc(NC(C)C)n1 [atrazine],inhibition at 600 g/ha,"setaria viridis; Setaria viridis, 504 h, Table 8, 600 g a.i./ha, post-emergence, 21 days after treatment, read-out: Fresh weight inhibition rate %, B single agent",26.1%
same,inhibition at 750 g/ha,"setaria viridis; Setaria viridis, 504 h, Table 8, post-emergence, 21 days after treatment, read-out: Fresh weight inhibition rate %, B single agent",33%
same,inhibition at 800 g/ha,"setaria viridis; Setaria viridis, 504 h, Table 8, 800 g a.i./ha, post-emergence, 21 days after treatment, read-out: Fresh weight inhibition rate %, B single agent",41.6%
CCSC(C)CC1CC(=O)C(/C(CC)=N/OC/C=C/Cl)=C(O)C1 (stereo not drawn) [clethodim],inhibition at 25 g/ha,"alopecurus japonicus; Alopecurus japonicus, 504 h, Table 5, post-emergence, 21 days after treatment, read-out: Fresh weight inhibition rate %, B single agent",7.52%
same,inhibition at 40 g/ha,"alopecurus japonicus; Alopecurus japonicus, 504 h, Table 5, 40 g a.i./ha, post-emergence, 21 days after treatment, read-out: Fresh weight inhibition rate %, B single agent",34.8%
same,inhibition at 60 g/ha,"alopecurus japonicus; Alopecurus japonicus, 504 h, Table 5, 60 g a.i./ha, post-emergence, 21 days after treatment, read-out: Fresh weight inhibition rate %, B single agent",43%
COC(=O)[C@@H](C)Oc1ccc(Oc2ncc(C(F)(F)F)cc2Cl)cc1 [haloxyfop-P-methyl],"Fresh weight inhibition rate %, B single agent",alopecurus japonicus; B 15 g a.i./ha,7.80%
same,"Fresh weight inhibition rate %, B single agent",alopecurus japonicus; B 25 g a.i./ha,15.29%
same,"Fresh weight inhibition rate %, B single agent",alopecurus japonicus; B 40 g a.i./ha,15.32%
same,"Fresh weight inhibition rate %, B single agent",alopecurus japonicus; B 60 g a.i./ha,27.52%
CC(C)c1ccc(NC(=O)N(C)C)cc1 [isoproturon],"Fresh weight inhibition rate %, B single agent",setaria viridis; B 400 g a.i./ha,22.19%
same,"Fresh weight inhibition rate %, B single agent",setaria viridis; B 495 g a.i./ha,23.26%
same,"Fresh weight inhibition rate %, B single agent",setaria viridis; B 600 g a.i./ha,33.26%
CCC(CC)Nc1c([N+](=O)[O-])cc(C)c(C)c1[N+](=O)[O-] [pendimethalin],"Fresh weight inhibition rate %, B single agent","eleusine indica; Table 21, B 300 g a.i./ha",36.92%
same,"Fresh weight inhibition rate %, B single agent","eleusine indica; Table 21, B 375 g a.i./ha",54.44%
CCc1cc(C)cc(CC)c1-c1c(OC(=O)C(C)(C)C)n2n(c1=O)CCOCC2 [pinoxaden],inhibition at 15 g/ha,"alopecurus japonicus; Alopecurus japonicus, 504 h, Table 7, 15 g a.i./ha, post-emergence, 21 days after treatment, read-out: Fresh weight inhibition rate %, B single agent",38.8%
same,inhibition at 20 g/ha,"alopecurus japonicus; Alopecurus japonicus, 504 h, Table 7, 20 g a.i./ha, post-emergence, 21 days after treatment, read-out: Fresh weight inhibition rate %, B single agent",42.3%
same,inhibition at 25 g/ha,"alopecurus japonicus; Alopecurus japonicus, 504 h, Table 7, post-emergence, 21 days after treatment, read-out: Fresh weight inhibition rate %, B single agent",58.7%
CCC(=O)Nc1ccc(Cl)c(Cl)c1 [propanil],inhibition at 500 g/ha,"setaria viridis; Setaria viridis, 504 h, Table 6, 500 g a.i./ha, post-emergence, 21 days after treatment, read-out: Fresh weight inhibition rate %, B single agent",48.1%
same,inhibition at 750 g/ha,"setaria viridis; Setaria viridis, 504 h, Table 6, post-emergence, 21 days after treatment, read-out: Fresh weight inhibition rate %, B single agent",58.1%
same,inhibition at 1000 g/ha,"setaria viridis; Setaria viridis, 504 h, Table 6, 1000 g a.i./ha, post-emergence, 21 days after treatment, read-out: Fresh weight inhibition rate %, B single agent",69.1%
CCCN(CCC)c1c([N+](=O)[O-])cc(C(F)(F)F)cc1[N+](=O)[O-] [trifluralin],"Fresh weight inhibition rate %, B single agent","digitaria sanguinalis; Table 39, B 156.25 g a.i./ha",12.50%
same,"Fresh weight inhibition rate %, B single agent","digitaria sanguinalis; Table 39, B 250 g a.i./ha",48.67%
same,"Fresh weight inhibition rate %, B single agent","digitaria sanguinalis; Table 39, B 375 g a.i./ha",62.58%
